Source: PubChem BioAssay (NCI)
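The concentration for 50% growth inhibition is given as GI50. TGI marks complete inhibition of growth.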

Legend:
Assay in all cases: NCI anticancer screen, dose series, 384-well format
[1] = test system: SN12C renal
[2] = test system: 786-0 renal
[3] = test system: HT29 colon
[4] = test system: PC-3 prostate
[5] = test system: UACC-257 melanoma
[6] = test system: A549 NSCLC
[7] = test system: MDA-MB-231 breast
[8] = test system: UO-31 renal
[9] = test system: KM12 colon
[10] = test system: SW-620 colon
[11] = test system: SR leukemia
[12] = test system: HL-60(TB) leukemia
[13] = test system: T-47D breast
[14] = test system: BT-549 breast
[15] = test system: COLO 205 colon
[16] = test system: ACHN renal
[17] = test system: TK-10 renal
[18] = test system: HOP-62 NSCLC
[19] = test system: NCI/ADR-RES ovarian
[20] = test system: IGROV1 ovarian
[21] = test system: M14 melanoma
[22] = test system: HCC-2998 colon
[23] = test system: UACC-62 melanoma
[24] = test system: LOX IMVI melanoma
[25] = test system: MDA-MB-435 melanoma
[26] = test system: SF-295 CNS
[27] = test system: SNB-19 CNS
[28] = test system: SF-268 CNS
[29] = test system: HOP-92 NSCLC
[30] = test system: MOLT-4 leukemia
[31] = test system: NCI-H23 lung
[32] = test system: HCT-15 colon
[33] = test system: NCI-H522 lung
[34] = test system: NCI-H460 NSCLC
[35] = test system: RXF 393 renal
[36] = test system: MALME-3M melanoma
[37] = test system: DU-145 prostate
[38] = test system: OVCAR-8 ovarian
[39] = test system: HCT-116 colon
[40] = test system: OVCAR-3 ovarian
[41] = test system: CAKI-1 renal
[42] = test system: K-562 leukemia
[43] = test system: OVCAR-4 ovarian
[44] = test system: HS 578T breast
[45] = test system: U251 glioblastoma
[46] = test system: RPMI-8226 leukemia
[47] = test system: MDA-MB-468 breast
[48] = test system: SF-539 CNS
[49] = test system: A498 renal
[50] = test system: SNB-75 CNS
[51] = test system: SK-MEL-5 melanoma
[52] = test system: NCI-H322M lung
[53] = test system: SK-OV-3 ovarian
[54] = test system: NCI-H226 lung
[55] = test system: CCRF-CEM leukemia
[56] = test system: SK-MEL-28 melanoma
[57] = test system: MCF7 breast
[58] = test system: EKVX NSCLC

Cn1ncc(NC(=O)c2nc(-c3c(F)cccc3F)sc2N)c1N1CC[C@@H](N)[C@H](F)CC1
GI50 [1]: 2.55 µM
TGI [1]: 11.1 µM
GI50 [2]: 4.22 µM
TGI [2]: 14.8 µM
GI50 [3]: 7.09 µM
TGI [3]: 19.9 µM
GI50 [4]: 3.23 µM
TGI [4]: 12.9 µM
GI50 [5]: 7.52 µM
TGI [5]: 20 µM
GI50 [6]: 4.22 µM
TGI [6]: 15.7 µM
GI50 [7]: 4.31 µM
TGI [7]: 16 µM
GI50 [8]: 1.96 µM
TGI [8]: 5.94 µM
GI50 [9]: 6.59 µM
TGI [9]: 19.3 µM
GI50 [10]: 3.29 µM
TGI [10]: 12.2 µM
GI50 [11]: 0.0471 µM
TGI [11]: 0.602 µM
GI50 [12]: 1.51 µM
TGI [12]: 2.91 µM
GI50 [13]: 15.3 µM
TGI [13]: 30 µM
GI50 [14]: 1.72 µM
TGI [14]: 5.44 µM
GI50 [15]: 5.42 µM
TGI [15]: 19 µM
GI50 [16]: 3.25 µM
TGI [16]: 15.6 µM
GI50 [17]: 2.88 µM
TGI [17]: 15.4 µM
GI50 [18]: 5.55 µM
TGI [18]: 18.3 µM
GI50 [19]: 16.5 µM
TGI [19]: 33.2 µM
GI50 [20]: 3.69 µM
TGI [20]: 13.7 µM
GI50 [21]: 2.44 µM
TGI [21]: 14.3 µM
GI50 [22]: 8.83 µM
TGI [22]: 21.2 µM
GI50 [23]: 3.34 µM
TGI [23]: 11.7 µM
GI50 [24]: 4.33 µM
TGI [24]: 14.5 µM
GI50 [25]: 3.2 µM
TGI [25]: 15.4 µM
GI50 [26]: 5.52 µM
TGI [26]: 17.8 µM
GI50 [27]: 12.1 µM
TGI [27]: 26.1 µM
GI50 [28]: 3.47 µM
TGI [28]: 14.2 µM
GI50 [29]: 3.18 µM
TGI [29]: 13 µM
GI50 [30]: 1.61 µM
TGI [30]: 2.98 µM
GI50 [31]: 10.9 µM
TGI [31]: 23 µM
GI50 [32]: 5.03 µM
TGI [32]: 17.5 µM
GI50 [33]: 2.49 µM
TGI [33]: 9.18 µM
GI50 [34]: 3.49 µM
TGI [34]: 12.6 µM
GI50 [35]: 3.15 µM
TGI [35]: 13.1 µM
GI50 [36]: 2.58 µM
TGI [36]: 12.7 µM
GI50 [37]: 4.19 µM
TGI [37]: 15.7 µM
GI50 [38]: 7.11 µM
TGI [38]: 19.7 µM
GI50 [39]: 4.01 µM
TGI [39]: 15.6 µM
GI50 [40]: 3.89 µM
TGI [40]: 14.9 µM
GI50 [41]: 1.16 µM
TGI [41]: 4.92 µM
GI50 [42]: 2.19 µM
TGI [42]: 10.6 µM
GI50 [43]: 18.9 µM
TGI [43]: 34.2 µM
GI50 [44]: 2.83 µM
TGI [44]: 5.52 µM
GI50 [45]: 6.23 µM
TGI [45]: 18.7 µM
GI50 [46]: 0.0454 µM
TGI [46]: 4.12 µM
GI50 [47]: 2.8 µM
TGI [47]: 11.6 µM
GI50 [48]: 3.21 µM
TGI [48]: 13.3 µM
GI50 [49]: 3.02 µM
TGI [49]: 13.7 µM
GI50 [50]: 2.93 µM
TGI [50]: 10.8 µM
GI50 [51]: 1.35 µM
TGI [51]: 12.2 µM
GI50 [52]: 6.85 µM
TGI [52]: 21.3 µM
GI50 [53]: 1.83 µM
TGI [53]: 9.95 µM
GI50 [54]: 2.22 µM
TGI [54]: 9.62 µM
GI50 [55]: 1.48 µM
TGI [55]: 3.11 µM
GI50 [56]: 10.4 µM
TGI [56]: 22.2 µM
GI50 [57]: 2.82 µM
TGI [57]: 10.9 µM
GI50 [58]: 3.8 µM
TGI [58]: 17.5 µM
